The record followed here is patent publication US10030036B2, “Method and dyes for detecting and destroying cancer cells” (Lahjavida, LLC, priority 2009, dated 2018).

The nature of the data set: near infrared fluorescent spectral properties. Format: physicochemical. An excerpt:
Some of these compounds in formula 1-8 and the compounds shown in Scheme 1 have variable water solubility, near infrared fluorescent spectral properties suitable for in-vivo tissue imaging (e.g. MHI-148 has λmax absorption 780 nm and high intensity λmax emission 800 nm (FIG. 1)), and have been tested to have similar activities in near infrared fluorescent imaging of tumor cells and inhibiting tumor cell growth in vitro, and permit selective destruction of any gold labeled cancer cells via radiofrequency treatment. The solubility of the labeled gold particles may be controlled by the dye molecules attached to the surface of gold particles or by additional solubilization groups attached to the gold particle surface as it is described by the literature or by prior art. Biodistribution of these gold particles are determined by the molecules attached to the gold particle surface and particle size.

The molecule `CC1(C)C(/C=C/C2=C(Cl)C(=C/C=C3\Cc4ccccc4N3CCCCCC(=O)O)/CCC2)=[N+](CCCCCC(=O)O)c2ccccc21` [MHI-148] yielded a λmax absorption of 780 nm. The molecule further showed a λmax emission (high intensity) of 800 nm.
